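All cell lines were grown in 96-well plates and treated with compound for 48 hours. TGI denotes the concentration required for complete inhibition of growth.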
Tests used:
Assay in all cases: NCI anticancer screen, dose series, 48 h
786-0 renal = tested on: 786-0 renal
A498 renal = tested on: A498 renal
A549 NSCLC = tested on: A549 NSCLC
ACHN renal = tested on: ACHN renal
BT-549 breast = tested on: BT-549 breast
CAKI-1 renal = tested on: CAKI-1 renal
CCRF-CEM leukemia = tested on: CCRF-CEM leukemia
COLO 205 colon = tested on: COLO 205 colon
DU-145 prostate = tested on: DU-145 prostate
EKVX NSCLC = tested on: EKVX NSCLC
HCC-2998 colon = tested on: HCC-2998 colon
HCT-116 colon = tested on: HCT-116 colon
HCT-15 colon = tested on: HCT-15 colon
HL-60(TB) leukemia = tested on: HL-60(TB) leukemia
HOP-62 NSCLC = tested on: HOP-62 NSCLC
HOP-92 NSCLC = tested on: HOP-92 NSCLC
HS 578T breast = tested on: HS 578T breast
HT29 colon = tested on: HT29 colon
IGROV1 ovarian = tested on: IGROV1 ovarian
K-562 leukemia = tested on: K-562 leukemia
KM12 colon = tested on: KM12 colon
LOX IMVI melanoma = tested on: LOX IMVI melanoma
M14 melanoma = tested on: M14 melanoma
MALME-3M melanoma = tested on: MALME-3M melanoma
MCF7 breast = tested on: MCF7 breast
MDA-MB-231 breast = tested on: MDA-MB-231 breast
MDA-MB-435 = tested on: MDA-MB-435
MDA-N = tested on: MDA-N
MOLT-4 leukemia = tested on: MOLT-4 leukemia
NCI-H226 lung = tested on: NCI-H226 lung
NCI-H23 lung = tested on: NCI-H23 lung
NCI-H460 lung = tested on: NCI-H460 lung
NCI-H522 lung = tested on: NCI-H522 lung
NCI/ADR-RES ovarian = tested on: NCI/ADR-RES ovarian
OVCAR-3 ovarian = tested on: OVCAR-3 ovarian
OVCAR-4 ovarian = tested on: OVCAR-4 ovarian
OVCAR-5 ovarian = tested on: OVCAR-5 ovarian
OVCAR-8 ovarian = tested on: OVCAR-8 ovarian
PC-3 prostate = tested on: PC-3 prostate
RPMI-8226 leukemia = tested on: RPMI-8226 leukemia
RXF 393 renal = tested on: RXF 393 renal
SF-268 CNS = tested on: SF-268 CNS
SF-295 CNS = tested on: SF-295 CNS
SF-539 CNS = tested on: SF-539 CNS
SK-MEL-2 melanoma = tested on: SK-MEL-2 melanoma
SK-MEL-28 melanoma = tested on: SK-MEL-28 melanoma
SK-MEL-5 melanoma = tested on: SK-MEL-5 melanoma
SK-OV-3 ovarian = tested on: SK-OV-3 ovarian
SN12C renal = tested on: SN12C renal
SNB-19 CNS = tested on: SNB-19 CNS
SNB-75 CNS = tested on: SNB-75 CNS
SR leukemia = tested on: SR leukemia
SW-620 colon = tested on: SW-620 colon
T-47D breast = tested on: T-47D breast
TK-10 renal = tested on: TK-10 renal
U251 CNS = tested on: U251 CNS
UACC-257 melanoma = tested on: UACC-257 melanoma
UACC-62 melanoma = tested on: UACC-62 melanoma
UO-31 renal = tested on: UO-31 renal

COc1cc(N(CCC#N)CCC#N)ccc1/C=C1\SC(=S)NC1=O
TGI (786-0 renal): > 100 µM | TGI (A498 renal): > 100 µM | TGI (A549 NSCLC): > 100 µM | TGI (ACHN renal): > 100 µM | TGI (BT-549 breast): > 100 µM | TGI (CAKI-1 renal): > 100 µM | TGI (CCRF-CEM leukemia): > 100 µM | TGI (COLO 205 colon): > 100 µM | TGI (DU-145 prostate): > 100 µM | TGI (EKVX NSCLC): > 100 µM | TGI (HCC-2998 colon): > 100 µM | TGI (HCT-116 colon): > 100 µM | TGI (HCT-15 colon): > 100 µM | TGI (HL-60(TB) leukemia): > 100 µM | TGI (HOP-62 NSCLC): > 100 µM | TGI (HOP-92 NSCLC): > 100 µM | TGI (HS 578T breast): > 100 µM | TGI (HT29 colon): > 100 µM | TGI (IGROV1 ovarian): > 100 µM | TGI (K-562 leukemia): > 100 µM | TGI (KM12 colon): > 100 µM | TGI (LOX IMVI melanoma): > 100 µM | TGI (M14 melanoma): > 100 µM | TGI (MALME-3M melanoma): > 100 µM | TGI (MCF7 breast): > 100 µM | TGI (MDA-MB-231 breast): > 100 µM | TGI (MDA-MB-435): > 100 µM | TGI (MDA-N): > 100 µM | TGI (MOLT-4 leukemia): > 100 µM | TGI (NCI-H226 lung): > 100 µM | TGI (NCI-H23 lung): > 100 µM | TGI (NCI-H460 lung): > 100 µM | TGI (NCI-H522 lung): > 100 µM | TGI (NCI/ADR-RES ovarian): > 100 µM | TGI (OVCAR-3 ovarian): > 100 µM | TGI (OVCAR-4 ovarian): > 100 µM | TGI (OVCAR-5 ovarian): > 100 µM | TGI (OVCAR-8 ovarian): > 100 µM | TGI (PC-3 prostate): > 100 µM | TGI (RPMI-8226 leukemia): > 100 µM | TGI (RXF 393 renal): > 100 µM | TGI (SF-268 CNS): > 100 µM | TGI (SF-295 CNS): > 100 µM | TGI (SF-539 CNS): > 100 µM | TGI (SK-MEL-2 melanoma): > 100 µM | TGI (SK-MEL-28 melanoma): > 100 µM | TGI (SK-MEL-5 melanoma): > 100 µM | TGI (SK-OV-3 ovarian): > 100 µM | TGI (SN12C renal): > 100 µM | TGI (SNB-19 CNS): > 100 µM | TGI (SNB-75 CNS): > 100 µM | TGI (SR leukemia): > 100 µM | TGI (SW-620 colon): > 100 µM | TGI (T-47D breast): > 100 µM | TGI (TK-10 renal): > 100 µM | TGI (U251 CNS): > 100 µM | TGI (UACC-257 melanoma): > 100 µM | TGI (UACC-62 melanoma): > 100 µM | TGI (UO-31 renal): > 100 µM

COc1cc(N=CN(C)C)c2ncccc2c1
TGI (786-0 renal): > 100 µM | TGI (A498 renal): > 100 µM | TGI (A549 NSCLC): > 100 µM | TGI (ACHN renal): > 100 µM | TGI (BT-549 breast): > 100 µM | TGI (CAKI-1 renal): > 100 µM | TGI (CCRF-CEM leukemia): > 100 µM | TGI (COLO 205 colon): > 100 µM | TGI (DU-145 prostate): > 100 µM | TGI (EKVX NSCLC): > 100 µM | TGI (HCT-116 colon): > 100 µM | TGI (HCT-15 colon): > 100 µM | TGI (HL-60(TB) leukemia): > 100 µM | TGI (HOP-62 NSCLC): > 100 µM | TGI (HOP-92 NSCLC): > 100 µM | TGI (HS 578T breast): > 100 µM | TGI (HT29 colon): > 100 µM | TGI (IGROV1 ovarian): > 100 µM | TGI (K-562 leukemia): 47 µM | TGI (LOX IMVI melanoma): > 100 µM | TGI (M14 melanoma): > 100 µM | TGI (MALME-3M melanoma): > 100 µM | TGI (MCF7 breast): > 100 µM | TGI (MDA-MB-231 breast): > 100 µM | TGI (MDA-MB-435): > 100 µM | TGI (MDA-N): 56 µM | TGI (MOLT-4 leukemia): > 100 µM | TGI (NCI-H226 lung): > 100 µM | TGI (NCI-H23 lung): > 100 µM | TGI (NCI-H522 lung): > 100 µM | TGI (NCI/ADR-RES ovarian): > 100 µM | TGI (OVCAR-3 ovarian): > 100 µM | TGI (OVCAR-4 ovarian): > 100 µM | TGI (OVCAR-5 ovarian): > 100 µM | TGI (OVCAR-8 ovarian): > 100 µM | TGI (PC-3 prostate): > 100 µM | TGI (RPMI-8226 leukemia): > 100 µM | TGI (RXF 393 renal): > 100 µM | TGI (SF-268 CNS): > 100 µM | TGI (SF-295 CNS): > 100 µM | TGI (SF-539 CNS): > 100 µM | TGI (SK-MEL-2 melanoma): > 100 µM | TGI (SK-MEL-28 melanoma): > 100 µM | TGI (SK-MEL-5 melanoma): > 100 µM | TGI (SK-OV-3 ovarian): > 100 µM | TGI (SN12C renal): > 100 µM | TGI (SNB-19 CNS): > 100 µM | TGI (SNB-75 CNS): > 100 µM | TGI (SR leukemia): 19.3 µM | TGI (T-47D breast): > 100 µM | TGI (TK-10 renal): > 100 µM | TGI (U251 CNS): > 100 µM | TGI (UACC-257 melanoma): > 100 µM | TGI (UACC-62 melanoma): > 100 µM | TGI (UO-31 renal): > 100 µM

CCc1n[nH]c(=S)n1/N=C\c1ccc(-c2ccccc2Cl)o1
TGI (786-0 renal): 86.6 µM | TGI (A498 renal): > 100 µM | TGI (A549 NSCLC): > 100 µM | TGI (ACHN renal): > 100 µM | TGI (BT-549 breast): 66.6 µM | TGI (CAKI-1 renal): > 100 µM | TGI (CCRF-CEM leukemia): > 100 µM | TGI (COLO 205 colon): > 100 µM | TGI (DU-145 prostate): > 100 µM | TGI (EKVX NSCLC): > 100 µM | TGI (HCC-2998 colon): 83.3 µM | TGI (HCT-116 colon): 66.6 µM | TGI (HCT-15 colon): 83.3 µM | TGI (HL-60(TB) leukemia): 68 µM | TGI (HOP-62 NSCLC): > 100 µM | TGI (HOP-92 NSCLC): > 100 µM | TGI (HS 578T breast): > 100 µM | TGI (HT29 colon): > 100 µM | TGI (IGROV1 ovarian): > 100 µM | TGI (K-562 leukemia): 53.2 µM | TGI (KM12 colon): > 100 µM | TGI (LOX IMVI melanoma): 66.6 µM | TGI (M14 melanoma): > 100 µM | TGI (MALME-3M melanoma): > 100 µM | TGI (MCF7 breast): > 100 µM | TGI (MDA-MB-231 breast): > 100 µM | TGI (MDA-MB-435): 48.4 µM | TGI (MDA-N): 54.1 µM | TGI (MOLT-4 leukemia): 45.6 µM | TGI (NCI-H226 lung): 41.6 µM | TGI (NCI-H23 lung): 82 µM | TGI (NCI-H460 lung): > 100 µM | TGI (NCI-H522 lung): 65.8 µM | TGI (NCI/ADR-RES ovarian): 53.7 µM | TGI (OVCAR-3 ovarian): > 100 µM | TGI (OVCAR-4 ovarian): > 100 µM | TGI (OVCAR-5 ovarian): > 100 µM | TGI (OVCAR-8 ovarian): 61.7 µM | TGI (PC-3 prostate): > 100 µM | TGI (RPMI-8226 leukemia): 51.3 µM | TGI (RXF 393 renal): > 100 µM | TGI (SF-268 CNS): > 100 µM | TGI (SF-295 CNS): > 100 µM | TGI (SF-539 CNS): 61.9 µM | TGI (SK-MEL-2 melanoma): 98 µM | TGI (SK-MEL-5 melanoma): 31.2 µM | TGI (SK-OV-3 ovarian): > 100 µM | TGI (SN12C renal): > 100 µM | TGI (SNB-19 CNS): > 100 µM | TGI (SNB-75 CNS): > 100 µM | TGI (SR leukemia): 53.5 µM | TGI (SW-620 colon): > 100 µM | TGI (T-47D breast): 87.5 µM | TGI (TK-10 renal): > 100 µM | TGI (U251 CNS): 97.4 µM | TGI (UACC-257 melanoma): > 100 µM | TGI (UACC-62 melanoma): > 100 µM | TGI (UO-31 renal): > 100 µM
